According to paper PMC8438204, “Unraveling the Thermodynamics of Ultra-tight Binding of Intrinsically Disordered Proteins” (Frontiers in Molecular Biosciences, 2021):
Where two headings read alike, the source gives them in different places. Marks after values point to notes of the source that are not given here.

Columns and labels:
[1] = test system: CcdB2; conditions: ref Drobnak et al., 2013, cited from earlier work
Method: Supplement DataSheet1.docx, table 1: Table S1. Thermodynamic parameters and structural properties of the complexes. All parameters are reported at T = 25°C. | column: Thermodynamic parameters || Nonetheless, a handful of examples of IDP binders with ultra-high affinity have been characterized to date. […] Complexes are ordered according to the degree of energy optimization as estimated by the ΔH bind/ASAint values. For the HigA2_3-23-HigB2 complex the degree of energy optimization is similar to one observed for the pairs of globular high affinity binders (Supplementary Table S1, Figure 3A). […] The high affinit ...

[2] = test system: E9-Im9 (colicin DNase - immunity protein); conditions: ref Keeble et al., 2006, cited from earlier work
Method: Supplement DataSheet1.docx, table 1: Table S1. Thermodynamic parameters and structural properties of the complexes. All parameters are reported at T = 25°C. | column: Thermodynamic parameters

[3] = target: T1, HigB2 toxin (Vibrio cholerae serotype O1, UniProt Q9KMA6); conditions: full-length HigA2; temperature-dependent ITC; ref Hadži et al., 2017a; cited from earlier work
T1 sequence (Q9KMA6 1-110): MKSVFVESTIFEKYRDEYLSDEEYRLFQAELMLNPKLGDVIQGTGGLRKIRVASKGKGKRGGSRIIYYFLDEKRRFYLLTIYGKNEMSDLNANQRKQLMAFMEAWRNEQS

[4] = target: T1, HigB2 toxin; assay: Competition ITC (global fit of direct and competition titrations with nanobody-HigB2 complex); assay type: binding; design: made in house; conditions: for ΔG (association): competition ITC (Nb6/Nb10), VP-ITC, 4 µM HigB2; for ΔG (association) / ΔH (association) / −TΔS (association): 20 mM sodium phosphate pH 7.5, 150 mM NaCl, three replicates
[5] = 25°C, competition ITC, listed as Full-length HigA2

## CcdA37-72 (RRLRAERWKAENQEGMAEVARFIEMNGSFADENRDW; UniProt P62552 37-72, looked up, fragment)
[1]; 25°C, binding contribution
  -TΔS (binding): -0.5 kcal/mol
  ΔG (binding): -19.4 kcal/mol
  ΔH (binding): -18.9 kcal/mol
[1]; 25°C, folding contribution
  -TΔS (folding): 20.4 kcal/mol
  ΔG (folding): 3.8 kcal/mol
  ΔH (folding): -16.6 kcal/mol
[1]; 25°C
  -TΔS (association): 19.9 ± 0.3 kcal/mol
  ΔG (association): -15.6 ± 0.1 kcal/mol
  ΔH (association): -35.5 ± 0.2 kcal/mol
[1]
  ΔCp (association): -0.63 ± 0.02 kcal mol^-1 K^-1

## E9-Im9
[2]; 25°C
  -TΔS: -8.1 ± 0.5 kcal/mol
  ΔG: -18.6 ± 0.1 kcal/mol
[2]
  ΔCp: -0.45 kcal mol^-1 K^-1

## HigA2
[3]
  ΔCp (association): −0.95^a kcal mol^−1 K^-1
[4]; 25°C
  ΔG (association): -14.7 kcal/mol
[4]; 25°C, listed as Full-length HigA2
  ΔG (association): -14.7 ± 0.9 kcal/mol
[4]; 25°C, competition ITC
  ΔH (association): -31.5 kcal/mol
  −TΔS (association): 16.8 kcal/mol
[4]; [5]
  ΔH (association): -31.5 ± 1.0 kcal/mol
  −TΔS (association): 16.8 ± 1.9 kcal/mol
[4]; 25°C, competition ITC, value given in abstract, introduction, discussion and Figure 4 under the name HigA2, read-out: KD stated for HigA2-HigB2
  Kd: 3 pM

## CC(C)C[C@H](NC(=O)[C@H](C)NC(=O)[C@H](CO)NC(=O)[C@H](CO)NC(=O)[C@H](CC(C)C)NC(=O)[C@H](CCC(=O)O)NC(=O)[C@H](C)NC(=O)[C@H](Cc1ccccc1)NC(=O)[C@H](CC(C)C)NC(=O)[C@H](CC(=O)O)NC(=O)[C@H](CCCNC(=N)N)NC(=O)[C@@H](N)CC(N)=O)C(=O)N[C@H](C(=O)N[C@@H](CCC(=O)O)C(=O)N[C@@H](C)C(=O)N[C@@H](CCCCN)C(=O)N[C@@H](CCC(N)=O)C(=O)N[C@@H](Cc1c[nH]cn1)C(=O)N[C@@H](CO)C(=O)N[C@@H](CCC(=O)O)C(=O)NCC(=O)N[C@@H](Cc1c[nH]c2ccccc12)C(=O)O)C(C)C [HigA2_3-23]
[4]
  Kd: 3 pM
